Experimental data as given in US20250049798A1, “WEE1 PROTEIN KINASE DEGRADATION AGENT AND USE THEREOF” (HANGZHOU GLUBIO PHARMACEUTICAL CO. LTD., priority 2021, published 2025).

How the values were obtained:
HiBiT tagged Wee1 = HiBiT tagged Wee1 (Homo sapiens, UniProt P30291); test: Wee1 protein degradation assay (HiBiT assay); format: cell-based; conditions: engineered HT-1080 cells, 20 hours; for Dmax: maximum percentage of Wee1 degradation, read-out: HiBiT Wee1: Dmax
NCI-H1048 cells = test: NCI-H1048 cell proliferation assay (CTG assay); format: cell-based; conditions: Homo sapiens, 120 hours, read-out: CTG cellular assay_H1048: IC50
Experimental: NCI-H1048 Cell Proliferation Assay (CTG Assay) The following is an example of an assay that can be used to determine the anti-proliferative activity of Wee1 PROTACs in a small cell lung cancer cell line, NCI-H1048 (ATCC Cat #CRL-5853). This cell line was cultured in RPMI-1640 medium supplemented with 10% FBS. About 1,200 NCI-H1048 cells in 50 μL of culture medium were seeded into a 384-well plate (Cat #3764, Corning), pre-spotted with compounds using the Echo 650 liquid handler (Beckman). The dose-response-curve (DRC) typically has 10-points with a highest concentration at 10 μM, and half-log diluted to as low as 0.316 nM, plus a DMSO control. Assay plates were incubated at 37° C. with 5% CO2 for 120 hours. After that, 20 μL of the CellTiter-Glo (CTG) Luminescent Cell Viability Assay Reagent (Cat #G7573, Promega) was added to each well and incubated at room temperature for 30 minutes. Luminescence was then measured with Pherastar microplate reader (BMG Labtech). All percentage of cell growth inhibition curves were processed using Collaborative Drug Discovery Vault.
Cell viability reads in compound-treated wells were normalized to that of DMSO control and expressed as Percent of Control (PoC, y). A four Parameter Logistic Model was used to determine the compound's EC50 and DC50, using the following equation: […]

Chain of HiBiT tagged Wee1 (P30291 whole entry): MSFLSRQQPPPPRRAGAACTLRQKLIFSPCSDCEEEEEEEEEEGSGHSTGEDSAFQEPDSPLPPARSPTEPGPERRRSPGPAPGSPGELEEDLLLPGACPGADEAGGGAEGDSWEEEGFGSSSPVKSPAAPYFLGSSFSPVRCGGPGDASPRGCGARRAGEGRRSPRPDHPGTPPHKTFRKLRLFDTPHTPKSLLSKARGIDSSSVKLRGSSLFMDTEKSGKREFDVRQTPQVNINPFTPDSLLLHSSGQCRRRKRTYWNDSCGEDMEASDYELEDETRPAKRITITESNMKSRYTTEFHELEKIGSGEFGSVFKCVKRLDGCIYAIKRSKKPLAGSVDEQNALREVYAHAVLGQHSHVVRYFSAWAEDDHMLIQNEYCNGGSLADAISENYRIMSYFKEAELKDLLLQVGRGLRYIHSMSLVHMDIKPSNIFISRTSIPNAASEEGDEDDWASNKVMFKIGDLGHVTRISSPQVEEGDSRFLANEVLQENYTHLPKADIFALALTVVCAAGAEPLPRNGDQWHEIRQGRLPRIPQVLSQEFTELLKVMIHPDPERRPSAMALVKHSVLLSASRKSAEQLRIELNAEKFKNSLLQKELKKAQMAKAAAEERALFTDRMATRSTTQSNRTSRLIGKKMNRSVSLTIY

SMILES	DC50 (HiBiT tagged Wee1)	Dmax (HiBiT tagged Wee1)	IC50 (NCI-H1048 cells)
C=CCn1c(=O)c2cnc(Nc3ccc(C4CCN(CC5CCN(Cc6ccc7c(c6)n(C)c(=O)n7C6CCC(=O)NC6=O)CC5)CC4)cc3)nc2n1-c1cccc(C(C)(C)O)n1 (centres unmarked) [Compound 79]	< 100 nM	50 to 75%	≤ 25 nM
C=CCn1c(=O)c2cnc(Nc3ccc(N4CCN(CC5CCN(c6ccc(NC7CCC(=O)NC7=O)cc6Cl)CC5)CC4)cc3)nc2n1-c1ccc2c(n1)[C@@](O)(CC)CC2 (some centres unmarked) [Compound 176]	< 100 nM	> 75%	≤ 25 nM
C=CCn1c(=O)c2cnc(Nc3ccc(C4CCN(CC5CCN(c6ccc7c(c6)C(=O)N(C6CCC(=O)NC6=O)C7=O)CC5)CC4)cc3)nc2n1-c1cccc(C(C)(C)O)n1 (centres unmarked) [Compound 21]	< 100 nM	50 to 75%	25 to 100 nM
C=CCn1c(=O)c2cnc(Nc3ccc(C4CCN(CC5CCN(c6cccc7c6n(C)c(=O)n7C6CCC(=O)NC6=O)CC5)CC4)c(C)c3)nc2n1-c1cccc(C(C)(C)O)n1 (centres unmarked) [Compound 97]	–	50 to 75%	≤ 25 nM
C=CCn1c(=O)c2cnc(Nc3ccc(N4CCN(CC5CN(c6ccc7c(c6)C(=O)N(C6CCC(=O)NC6=O)C7=O)C5)CC4)cc3)nc2n1-c1cccc(C(C)(C)O)n1 (centres unmarked) [Compound 10]	< 100 nM	50 to 75%	25 to 100 nM
C=CCn1c(=O)c2cnc(Nc3ccc(N4CCN(CC5CCN(c6cc7c(cc6F)c(N6CCC(=O)NC6=O)nn7C)CC5)CC4)cc3)nc2n1-c1ccc2c(n1)[C@](C)(O)CC2 [Compound 196]	< 100 nM	> 75%	≤ 25 nM
Cc1cc(Nc2ncc3c(n2)N(C)CN(c2c(Cl)cccc2Cl)C3=O)ccc1C1CCN(CC2CN(c3ccc4c(c3)C(=O)N(C3CCC(=O)NC3=O)C4=O)C2)CC1 (centres unmarked) [Compound 18]	> 1000 nM	< 50%	> 100 nM
C=CCn1c(=O)c2cnc(Nc3ccc4c(c3)CN(CC3CN(c5ccc6c(c5)C(=O)N(C5CCC(=O)NC5=O)C6=O)C3)CC4)nc2n1-c1cccc(C(C)(C)O)n1 (centres unmarked) [Compound 6]	> 1000 nM	< 50%	> 100 nM
C=CCn1c(=O)c2cnc(Nc3ccc(N4CCN(CCCc5ccc6c(c5)n(C)c(=O)n6C5CCC(=O)NC5=O)CC4)cc3)nc2n1-c1cccc(C(C)(C)O)n1 (centres unmarked) [Compound 46]	< 100 nM	50 to 75%	25 to 100 nM
C=CCn1c(=O)c2cnc(Nc3ccc(N4CCC(CN5CCN(c6ccc(NC7CCC(=O)NC7=O)cc6F)CC5)CC4)cc3)nc2n1-c1ccc2c(n1)[C@@](O)(CC)CC2 (some centres unmarked) [Compound 119]	< 100 nM	> 75%	≤ 25 nM

Now from value to compound:

DC50 (HiBiT tagged Wee1)	Dmax (HiBiT tagged Wee1)	IC50 (NCI-H1048 cells)	SMILES
< 100 nM	> 75%	≤ 25 nM	C=CCn1c(=O)c2cnc(Nc3ccc(N4CCN(CC5CCN(c6ncc(NC7CCC(=O)NC7=O)cc6F)CC5)CC4)cc3)nc2n1-c1ccc2c(n1)[C@@](O)(CC)CC2 (some centres unmarked) [Compound 180]
< 100 nM	–	≤ 25 nM	C=CCn1c(=O)c2cnc(Nc3ccc(N4CCN(CC5CCN(c6ccc(NC7CCC(=O)NC7=O)cc6F)CC5)CC4)cc3)nc2n1-c1ccc2c(n1)[C@](C)(O)CC2 (single isomer, unassigned) [Compound 152-A]
< 100 nM	> 75%	≤ 25 nM	C=CCn1c(=O)c2cnc(Nc3ccc(N4CCN(CC5CCN(c6ccc(NC7CCC(=O)NC7=O)cc6F)CC5)CC4)cc3)nc2n1-c1ccc(=O)n(C(C)C)n1 (centres unmarked) [Compound 158]
< 100 nM	> 75%	25 to 100 nM	C=CCn1c(=O)c2cnc(Nc3ccc(N4CCN(CC5(F)CCN(c6ccc(NC7CCC(=O)NC7=O)cc6F)CC5)CC4)cc3)nc2n1-c1ccc2c(n1)[C@@](O)(CC)CC2 (some centres unmarked) [Compound 166]
< 100 nM	–	≤ 25 nM	C=CCn1c(=O)c2cnc(Nc3ccc(N4CCC(N5CC6(CN(c7ccc(NC8CCC(=O)NC8=O)cc7F)C6)C5)CC4)cc3)nc2n1-c1ccc2c(n1)[C@@](O)(CC)CC2 (some centres unmarked) [Compound 156]
< 100 nM	–	≤ 25 nM	C=CCn1c(=O)c2cnc(Nc3ccc(N4CCN(C5CCN(c6ccc(NC7CCC(=O)NC7=O)cc6F)CC5)CC4)cc3)nc2n1-c1ccc2c(n1)[C@@](O)(CC)CC2 (some centres unmarked) [Compound 157]
